Assay results taken from patent publication US20130309306A1, “INTRAPULMONARY BENZODIAZEPINE FOR THE TREATMENT AND PREVENTION OF SEIZURES” (priority 2010, published 2013).

Test system: PTZ-induced seizures
Assay: PTZ seizure threshold test, tonic extension endpoint, Example 2
Assay type: in vivo, mice
Procedure: NIH Swiss mice (22-30 g) were kept in a vivarium under controlled environmental conditions (temperature, 22-26° C.; humidity, 40-50%) with an artificial 12-h light/dark cycle. Wood chips were used in all cages. Experiments were performed during the light phase of the light/dark cycle after a minimum 30-min period of acclimation to the experimental room. The animal facilities were fully accredited by the Association for Assessment and Accreditation of Laboratory Animal Care. All studies were performed under protocols approved by the Animal Care and Use Committee of the University of California, Davis in strict compliance with the Guide for the Care and Use of Laboratory Animals of the National Research Council (National Academy Press, Washington, D.C.; on the internet at nap.edu/readingroom/books/labrats/).
Midazolam was administered as a commercially available injectable solution (midazolam hydrochloride, 10 mg/10 ml; APP Pharmaceuticals, Schaumburg, Ill., USA) containing sodium chloride (0.8% w/v), disodium edetate (0.01% w/v), benzyl alcohol as preservative (1% v/v) with HCl to adjust the pH 3-3.6. Pentylenetetrazol (PTZ) (Sigma-Aldrich, St. Louis, Mo., USA) was dissolved in 0.9% w/v saline. The remaining test substances were all obtained from Tocris Bioscience (Ellisville, Mo., USA) except for clonazepam, which was from Sigma-Aldrich. Finasteride was dissolved in 25% hydroxypropyl-β-cyclodextrin (Trappsol; Cyclodextrin Technologies Development, High Springs, Fla., U.S.A.). Metyrapone was dissolved in double distilled water and PK 11195 and clonazepam were suspended in 1% Tween 80 and adjusted to volume with saline.
PTZ seizure threshold was determined according to a protocol used previously in our laboratory (Dhir et al., 2011). Intravenous PTZ elicits a sequence of seizure signs beginning with twitch and progressing to clonus and tonic limb extension. In the present study, tonic extension was used as the endpoint. […] It is noteworthy that this is the endpoint originally used in studies characterizing the actions of midazolam against PTZ seizures in mice (Pieri, 1983 Br J Clin Pharmacol 16 Suppl 1: 17S-27S). A 27 gauge-¾ inch “butterfly” needle was inserted into the lateral tail vein and the needle was secured with a narrow piece of adhesive tape. The animal was placed inside a 2 L glass beaker with free aeration from the top and allowed to move freely. The needle was connected by polyethylene tubing to a Beckton, Dickinson 1 ml syringe mounted on an infusion pump (Model ‘11’ plus syringe pump; Harvard Apparatus, Holliston, Mass.). PTZ solution (10 mg/ml) was infused at a constant rate of 0.5 ml/min. The infusion was stopped at 3 min or at the onset of tonic extension, whichever occurred first. The threshold value (mg/kg) for tonic extension was determined according to the formula: (infusion duration [sec]×infusion rate [ml/min]×PTZ concentration [mg/ml]×1000)/(60 [sec]×weight of mouse [g]).
In an initial experiment, the dose-response relationship for midazolam elevation of seizure threshold was assessed at doses of 100 μg/kg to 5 mg/kg (15 min pretreatment time). […] PK 11195 was used at a dose (15 mg/kg) as in the study of Ugale et al. (2004 Brain Res. 2004 Oct. 8; 1023(1):102-11). Clonazepam was administered at a dose of 100 μg/kg (Akula et al., 2009). The volume of all intraperitoneal injections was 10 ml/kg.
Results are expressed as mean±S.E.M.; the significance of the difference in the responses of treatment groups with respect to control is based on one-way analysis of variance (ANOVA) followed by specific post-hoc comparisons using Tukey's test. Differences are considered statistically significant when the probability of type I error was less than 0.05.

CCC(C)N(C)C(=O)c1cc2ccccc2c(-c2ccccc2Cl)n1 (centres unmarked) [PK 11195, 1-(2-chlorophenyl)-N-methyl-N-(1-methylpropyl)-3-isoquinolinecarboxamide]
PTZ seizure threshold, by itself (PK 11195 15 mg/kg i.p.): did not affect the seizure threshold | effect on seizure threshold elevation produced by clonazepam (PK 11195 15 mg/kg i.p. 30 min before clonazepam (FIG. 11 lower panel)): did not reduce the seizure threshold elevation | effect on threshold elevation produced by midazolam (PK 11195 15 mg/kg i.p. 30 min before midazolam 500 μg/kg i.p. (FIG. 10)): significantly reduced the elevation in threshold

O=C1CN=C(c2ccccc2Cl)c2cc([N+](=O)[O-])ccc2N1 [clonazepam]
increase in threshold for tonic extension (vs vehicle only control) (clonazepam 100 μg/kg i.p., 15 min before i.v. PTZ infusion, in the absence of finasteride): 2.8 fold

CC(C)(C)NC(=O)[C@H]1CC[C@H]2[C@@H]3CC[C@H]4NC(=O)C=C[C@]4(C)[C@H]3CC[C@]12C [finasteride]
effect on threshold elevation caused by intratracheal midazolam (finasteride 100 mg/kg i.p. 5 min before midazolam 100 μg/kg intratracheal (FIG. 13)): did significantly reduce the threshold elevation | effect on threshold elevation caused by midazolam (finasteride 100 mg/kg i.p. 5 min before midazolam 500 μg/kg i.p. (FIG. 8)): partially reduce the threshold elevation | effect on seizure threshold elevation produced by clonazepam (finasteride 100 mg/kg i.p. before clonazepam 100 μg/kg i.p. (FIG. 11 upper panel)): did reduce the seizure threshold elevation | PTZ seizure threshold, pretreatment by itself (finasteride 100 mg/kg i.p., no midazolam (FIG. 8)): did not alter the PTZ seizure threshold | PTZ seizure threshold, pretreatment by itself (finasteride 50 and 100 mg/kg i.p. (FIG. 13)): did not alter the PTZ seizure threshold | effect on seizure threshold elevation produced by clonazepam (finasteride before lower dose of clonazepam 25 μg/kg): trend toward an effect of finasteride, although it did not reach statistical significance

CCOC(=O)c1ncn2c1CN(C)C(=O)c1cc(F)ccc1-2 [flumazenil]
effect on threshold elevation caused by intratracheal midazolam (flumazenil 5 mg/kg i.p. 5 min before midazolam 100 and 200 μg/kg intratracheal (FIG. 12)): did abolish the threshold elevation | PTZ seizure threshold, pretreatment by itself (flumazenil 5 mg/kg i.p. (FIG. 12)): did not alter the PTZ seizure threshold

CC(C)(C(=O)c1cccnc1)c1cccnc1 [metyrapone]
PTZ seizure threshold when administered prior to midazolam (metyrapone 100 mg/kg i.p. 15 min before midazolam 500 μg/kg i.p. (FIG. 9)): further increment in threshold | PTZ seizure threshold, by itself (metyrapone 100 mg/kg i.p. (FIG. 9)): significant elevation in the threshold
